Test results published in ChEMBL document CHEMBL6109142 (J Med Chem, 2025).
The source made the active and inactive calls. No cut-off for these calls is given here.

Experiments:
[1] = target: T1, Transmembrane protease serine 2 (Homo sapiens, UniProt O15393); experiment: Inhibition of recombinant TMPRSS2 (unknown origin) extracted from baculovirus infected in Sf9 cells using Boc-QAR-AMC as substrate measured after 1 hr by fluorescence based analysis
[2] = target: T1, Transmembrane protease serine 2; experiment: Inhibition of recombinant TMPRSS2 (unknown origin) extracted from baculovirus infected in Sf9 cells assessed as residual activity using Boc-QAR-AMC as substrate at 1 nM measured after 1 hr by fluorescence based analysis relative to control
SARS-CoV-2 [3] = experiment: Antiviral activity against SARS-CoV-2 EG.5.1 infected in human Calu-3 cells assessed as reduction in residual intracellular nucleocapsid value at 1 uM preincubated with cells for 3 hrs followed by viral infection and measured after 48 hrs by immunostaining based analysis; format: functional, organism-based; details: Severe acute respiratory syndrome coronavirus 2, time 51.0 hrs
SARS-CoV-2 [4] = experiment: Antiviral activity against SARS-CoV-2 pseudotyped with delta spike protein infected in human Calu-3 cells assessed as prevention of virus-like particle cellular entry at 300 nM preincubated with cells for 3 hrs followed by viral infection and measured after 72 hrs by ONE-Glo-Ex luciferase assay relative to control; format: functional, Severe acute respiratory syndrome coronavirus 2; details: time 75 hrs
Calu-3 = experiment: Cytotoxicity against human Calu-3 cells assessed as cell viability at 10 uM measured after 72 hrs by luminescence based Cell-Titer-Glo assay; format: toxicity; details: calu-3, 72 h
SARS-CoV-2 [5] = experiment: Antiviral activity against SARS-CoV-2 EG.5.1 infected in human Calu-3 cells preincubated with cells for 3 hrs followed by viral infection and measured after 48 hrs by immunostaining based analysis; format: functional, organism-based; details: Severe acute respiratory syndrome coronavirus 2, EG.5.1, Calu-3
[6] = target: T1, Transmembrane protease serine 2; experiment: Inhibition of recombinant das TMPRSS2 (unknown origin) extracted from baculovirus infected in Sf9 cells assessed as inhibition constant using Boc-QAR-AMC as substrate measured after 1 hr by fluorescence based analysis
SARS-CoV-2 [7] = experiment: Antiviral activity against SARS-CoV-2 JN.1 infected in human Calu-3 cells preincubated with cells for 3 hrs followed by viral infection and measured after 48 hrs by immunostaining based analysis; format: functional, organism-based; details: Severe acute respiratory syndrome coronavirus 2, JN.1, Calu-3
Procathepsin L = Procathepsin L (Homo sapiens, UniProt P07711); experiment: Inhibition of recombinant human C-terminal 6 his-tagged Cathepsin L assessed as inhibition constant using Z-LR-AMC as peptide substrate incubated for 1 hr by fluorescence based analysis
SARS-CoV-2 [8] = experiment: Antiviral activity against SARS-CoV-2 pseudotyped with delta spike protein infected in human Calu-3 cells assessed as prevention of virus-like particle cellular entry at 300 nM preincubated with cells for 3 hrs followed by viral infection and measured after 72 hrs by ONE-Glo-Ex luciferase assay; format: functional, organism-based; details: Severe acute respiratory syndrome coronavirus 2, time 75.0 hrs
SARS-CoV-2 [9] = experiment: Antiviral activity against SARS-CoV-2 EG.5.1 infected in human Calu-3 cells assessed as reduction in residual intracellular nucleocapsid value at 1 uM preincubated with cells for 3 hrs followed by viral infection and measured after 48 hrs by immunostaining based analysis relative to control; format: functional, Severe acute respiratory syndrome coronavirus 2; details: time 51 hrs
[10] = target: T2, Suppressor of tumorigenicity 14 protein (Homo sapiens, UniProt Q9Y5Y6); experiment: Inhibition of Matriptase (unknown origin) assessed as inhibition constant using Boc-QAR-AMC as substrate incubated for 1 hr by fluorescence based analysis
T2 sequence (Q9Y5Y6 whole entry): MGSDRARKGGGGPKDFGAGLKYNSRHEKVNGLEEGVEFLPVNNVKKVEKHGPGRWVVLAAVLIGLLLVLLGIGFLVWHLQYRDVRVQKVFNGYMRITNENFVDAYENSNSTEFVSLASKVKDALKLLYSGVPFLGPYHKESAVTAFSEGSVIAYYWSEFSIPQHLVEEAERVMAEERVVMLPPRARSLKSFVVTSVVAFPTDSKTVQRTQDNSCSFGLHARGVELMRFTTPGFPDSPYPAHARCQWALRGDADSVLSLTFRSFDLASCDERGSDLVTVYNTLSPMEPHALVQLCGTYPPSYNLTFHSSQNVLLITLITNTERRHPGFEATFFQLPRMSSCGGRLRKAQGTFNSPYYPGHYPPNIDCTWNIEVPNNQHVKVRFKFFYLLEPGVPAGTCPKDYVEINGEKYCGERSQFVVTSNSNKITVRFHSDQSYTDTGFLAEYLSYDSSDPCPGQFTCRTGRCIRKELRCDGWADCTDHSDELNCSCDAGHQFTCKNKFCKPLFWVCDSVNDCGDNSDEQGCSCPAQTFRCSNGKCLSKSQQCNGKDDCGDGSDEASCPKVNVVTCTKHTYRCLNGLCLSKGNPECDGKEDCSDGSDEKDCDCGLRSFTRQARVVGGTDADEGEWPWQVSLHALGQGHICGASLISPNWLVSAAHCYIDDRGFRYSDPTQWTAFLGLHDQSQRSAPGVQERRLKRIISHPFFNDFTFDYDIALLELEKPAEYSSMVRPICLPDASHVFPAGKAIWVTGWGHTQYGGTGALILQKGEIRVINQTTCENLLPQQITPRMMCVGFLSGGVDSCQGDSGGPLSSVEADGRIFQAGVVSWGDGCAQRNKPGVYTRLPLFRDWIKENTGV

Coagulation factor X = Coagulation factor X (Homo sapiens, UniProt P00742); experiment: Inhibition of recombinant human C-terminal 10 his-tagged FXa extracted from baculovirus infected in Sf9 cells assessed as inhibition constant using Mca-RPKPVE-Nval-WRK(Dnp)-NH2 as substrate incubated for 1 hr by fluorescence based analysis
[11] = Cytotoxicity against human Calu-3 cells assessed as cell viability measured after 72 hrs by luminescence based Cell-Titer-Glo assay; format: toxicity

T1 sequence (O15393 1-255 limits assumed): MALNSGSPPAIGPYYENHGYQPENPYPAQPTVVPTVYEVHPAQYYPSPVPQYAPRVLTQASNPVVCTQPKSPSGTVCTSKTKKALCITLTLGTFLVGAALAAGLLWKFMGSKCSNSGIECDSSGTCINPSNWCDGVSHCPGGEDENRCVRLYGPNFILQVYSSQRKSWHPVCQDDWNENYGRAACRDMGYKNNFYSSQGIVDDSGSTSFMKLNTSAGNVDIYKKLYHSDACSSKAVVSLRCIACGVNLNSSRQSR
T1 sequence (O15393 256-492 limits assumed): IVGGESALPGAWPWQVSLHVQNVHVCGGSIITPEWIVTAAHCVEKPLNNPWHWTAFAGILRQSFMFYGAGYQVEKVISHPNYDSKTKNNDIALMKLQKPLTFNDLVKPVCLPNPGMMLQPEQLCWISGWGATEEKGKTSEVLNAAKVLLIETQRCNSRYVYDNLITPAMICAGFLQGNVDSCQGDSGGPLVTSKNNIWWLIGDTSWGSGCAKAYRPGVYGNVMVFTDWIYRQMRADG
Chain of Coagulation factor X (P00742 41-179 limits assumed): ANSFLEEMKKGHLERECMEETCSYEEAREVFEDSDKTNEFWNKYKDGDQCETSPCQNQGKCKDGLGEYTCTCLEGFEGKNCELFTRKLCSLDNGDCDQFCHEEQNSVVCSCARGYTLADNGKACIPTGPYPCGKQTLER
Chain of Coagulation factor X (P00742 235-488 limits assumed): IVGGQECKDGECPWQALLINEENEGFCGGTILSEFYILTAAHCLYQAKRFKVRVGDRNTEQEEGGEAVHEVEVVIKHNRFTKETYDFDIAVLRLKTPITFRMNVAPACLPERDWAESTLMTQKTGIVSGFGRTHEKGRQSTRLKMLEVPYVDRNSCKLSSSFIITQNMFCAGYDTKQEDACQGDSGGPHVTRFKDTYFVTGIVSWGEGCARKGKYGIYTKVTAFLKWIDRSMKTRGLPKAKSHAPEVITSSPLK

Row | Structure (SMILES) | IC50 [1] [nM] | Activity [2] [%] | Activity (SARS-CoV-2 [3]) | Activity (SARS-CoV-2 [4]) [%] | Activity (Calu-3) | EC50 (SARS-CoV-2 [5]) [nM] | Ki [6] [nM] | EC50 (SARS-CoV-2 [7]) [nM] | Ki (Procathepsin L) [nM] | Activity (SARS-CoV-2 [8]) | Activity (SARS-CoV-2 [9]) [%] | inhibition (Procathepsin L) | Ki [10] [nM] | Ki (Coagulation factor X) [nM] | CC50 at 72 h [11] [nM]
1 | N=C(N)NCCCCC(=O)N[C@H](CCC(N)=O)C(=O)N[C@@H](Cc1ccccc1)C(=O)N[C@@H](CCCNC(=N)N)C(=O)c1nc2ccccc2s1 | 1.4 | 28 | Active | 15 | Non-toxic |  |  |  |  |  |  |  |  |  | 
2 | N=C(N)NCCCCC(=O)N[C@@H](CCC(N)=O)C(=O)N[C@@H](Cc1ccccc1)C(=O)N[C@@H](CCCNC(=N)N)C(=O)c1nc2ccccc2s1 | 1.4 | 16 | Active | 13 | Non-toxic |  |  |  |  |  |  |  |  |  | 
3 | CCOC(=O)N[C@@H](CCCNC(=N)N)C(=O)N[C@@H](CCC(N)=O)C(=O)N[C@@H](Cc1ccccc1)C(=O)N[C@@H](CCCNC(=N)N)C(=O)c1nc2ccccc2s1 | 0.89 | 3 | Active | 17 | Non-toxic | 3.9 | 0.095 | 1.3 | 695 |  |  |  |  |  | 
4 | N=C(N)NCCC[C@H](NC(=O)[C@H](Cc1ccccc1)NC(=O)[C@@H]1CCC(=O)NCCCC(=O)N1)C(=O)c1nc2ccccc2s1 | 1 | 3 | Active | 20 | Non-toxic |  |  |  |  |  |  |  |  |  | 
5 | CN(C)C(=O)CC[C@H](NC(=O)CCCCNC(=N)N)C(=O)N[C@@H](Cc1ccccc1)C(=O)N[C@@H](CCCNC(=N)N)C(=O)c1nc2ccccc2s1 | 0.62 | 16 | Active | 18 | Non-toxic |  |  |  |  |  |  |  |  |  | 
6 | CC(=O)N[C@@H](CCC(N)=O)C(=O)N[C@@H](Cc1ccccc1)C(=O)N[C@@H](CCCNC(=N)N)C(=O)c1nc2ccccc2[nH]1 |  |  |  |  |  |  |  |  |  | Active |  |  |  |  | 
7 | N=C(N)NCCCCC(=O)N[C@@H](CCC(N)=O)C(=O)N[C@@H](Cc1ccccc1)C(=O)N[C@@H](CCCNC(=N)N)C(=O)c1nccs1 | 0.74 | 20 | Active | 20 | Non-toxic |  |  |  |  |  | 14 |  |  |  | 
8 | CS(=O)(=O)N[C@@H](CCC(N)=O)C(=O)N[C@@H](Cc1ccccc1)C(=O)N[C@@H](CCCNC(=N)N)C(=O)c1nc2ccccc2s1 |  | 13 | Active | 16 | Non-toxic | 29.1 |  | 3.3 |  |  |  | inactive |  |  | 
9 | CC(=O)N[C@@H](CCC(N)=O)C(=O)N[C@@H](Cc1ccccc1)C(=O)N[C@@H](CCCNC(=N)N)C(=O)CN1CCCCC1 |  |  |  |  |  |  |  |  |  | Active |  |  |  |  | 
10 | N=C(N)NCCCCC(=O)N[C@@H](Cc1ccccc1)C(=O)N[C@@H](Cc1ccccc1)C(=O)N[C@@H](CCCNC(=N)N)C(=O)c1nc2ccccc2s1 | 0.66 | 10 | Active | 23 | Non-toxic |  |  |  |  |  |  |  |  |  | 
11 | CC(=O)N[C@@H](CCC(N)=O)C(=O)N[C@@H](Cc1ccccc1)C(=O)N[C@@H](CCCNC(=N)N)C(=O)c1nccn1C |  |  |  |  |  |  |  |  |  | Active |  |  |  |  | 
12 | N=C(N)NCCC[C@H](NC(=O)[C@H](Cc1ccccc1)NC(=O)[C@H](CCC(N)=O)NC(=O)CCO)C(=O)c1nc2ccccc2s1 | 1.4 | 10 | Active | 24 | Non-toxic |  |  |  |  |  |  |  |  |  | 
13 | C[C@H](NC(=O)[C@H](CCC(N)=O)NC(=O)CCCCNC(=N)N)C(=O)N[C@@H](CCCNC(=N)N)C(=O)c1nc2ccccc2s1 | 2.4 | 46 | Active | 12 | Non-toxic | 11.9 | 0.53 | 2.8 |  |  |  | inactive | 0.16 |  | 
14 | N=C(N)NCCCCC(=O)N[C@@H](CCC(N)=O)C(=O)N[C@@H](CO)C(=O)N[C@@H](CCCNC(=N)N)C(=O)c1nc2ccccc2s1 | 3.2 | 19 | Active |  | Non-toxic |  |  |  |  |  |  |  |  |  | 
15 | N=C(N)NCCCCC(=O)N[C@@H](CC(N)=O)C(=O)N[C@@H](Cc1ccccc1)C(=O)N[C@@H](CCCNC(=N)N)C(=O)c1nc2ccccc2s1 | 0.87 | 11 | Active | 19 | Non-toxic |  |  |  |  |  |  |  |  |  | 
16 | N=C(N)NCCC[C@H](NC(=O)OCc1ccccc1)C(=O)N[C@@H](CCC(N)=O)C(=O)N[C@@H](Cc1ccccc1)C(=O)N[C@@H](CCCNC(=N)N)C(=O)c1nc2ccccc2s1 | 1.4 | 7 | Active | 33 | Non-toxic |  |  |  |  |  |  |  |  |  | 
17 | C[C@H](NC(=O)CCCCNC(=N)N)C(=O)N[C@@H](Cc1ccccc1)C(=O)N[C@@H](CCCNC(=N)N)C(=O)c1nc2ccccc2s1 | 0.66 | 8 | Active | 14 | Non-toxic |  |  |  |  |  |  |  |  |  | 
18 | COCCC(=O)N[C@@H](CCC(N)=O)C(=O)N[C@@H](Cc1ccccc1)C(=O)N[C@@H](CCCNC(=N)N)C(=O)c1nc2ccccc2s1 | 0.59 | 2 | Active | 17 | Non-toxic | 4.1 |  | 1.5 |  |  |  | inactive |  | 102 | 
19 | CN(C)C(=O)COC(=O)Cc1ccc(OC(=O)c2ccc(NC(=N)N)cc2)cc1 [CAMOSTAT] |  |  |  |  |  | 201 |  | 7.5 |  |  |  |  |  |  | 110000
20 | CC(C)[C@H](NC(=O)[C@H](Cc1cscn1)NC(=O)CCc1ccccc1)C(=O)N[C@@H](CCCNC(=N)N)C(=O)c1nc2ccccc2s1 | 3 | 34 | Active | 15 | Non-toxic |  |  |  |  |  |  |  |  |  | 
21 | CC(=O)N[C@@H](CCC(N)=O)C(=O)N[C@@H](CC1CCCCC1)C(=O)N[C@@H](CCCNC(=N)N)C(=O)c1nc2ccccc2s1 | 1.3 | 18 | Active | 13 | Non-toxic |  |  |  |  |  |  |  |  |  | 
22 | CS(=O)(=O)N[C@@H](CCC(N)=O)C(=O)N[C@@H](Cc1ccccc1)C(=O)N[C@@H](CCCNC(=N)N)C(=O)c1nccs1 | 0.87 | 11 | Active | 14 | Non-toxic | 21.7 |  | 8.5 |  |  |  | inactive |  | 9.2 | 110000
